# Assay results published in patent US20090270382A1, “Soluble epoxide hydrolase inhibitors” (Arete Therapeutics, Inc., priority 2008, published 2009).
# Tests used:
# [1] = test system: soluble epoxide hydrolase (sEH); assay: Fluorescent assay for mouse and human soluble epoxide hydrolase (CMNPC substrate); assay type: biochemical
# Excerpt: Fluorescent Assay for Mouse and Human Soluble Epoxide Hydrolase Recombinant mouse sEH (MsEH) and human sEH (HsEH) were produced in a baculovirus expression system as previously reported. Grant et al., J. Biol. Chem., 268:17628-17633 (1993); Beetham et al., Arch. Biochem. Biophys., 305:197-201 (1993). The expressed proteins were purified from cell lysate by affinity chromatography. Wixtrom et al., Anal. Biochem., 169:71-80 (1988). Protein concentration was quantified using the Pierce BCA assay using bovine serum albumin as the calibrating standard. The preparations were at least 97% pure as judged by SDS-PAGE and scanning densitometry. They contained no detectable esterase or glutathione transferase activity which can interfere with the assay. The assay was also evaluated with similar results in crude cell lysates or homogenate of tissues. The IC50s for each inhibitor were according to the following procedure: […] Jones P. D. et. al.; Analytical Biochemistry 2005; 343: pp. 66-75) Bis/Tris HCl 25 mM pH 7.0 containing 0.1 mg/mL of BSA (buffer […] at 0.25 mM in DMSO. Mother solution of enzyme in buffer A (Mouse sEH at 6 μg/mL and Human sEH at 5 μg/mL). Inhibitor dissolved in DMSO at the appropriate concentration. In a black 96 well plate, fill all the wells with 150 μL of buffer A. Add 2 μL of DMSO in well A2 and A3, and then add 2 μL of inhibitor solution in A1 and A4 through A12. Add 150 μL of buffer A in row A, then mix several time and transfer 150 μL to row B. Repeat this operation up to row H. The 150 μL removed from row H is discarded. Add 20 μL of buffer A in column 1 and 2, then add 20 μL of enzyme solution to column 3 to 12. Incubate the plate for 5 minutes in the plate reader at 30° C. During incubation prepare the working solution of substrate by mixing 3.68 mL of buffer A (4×0.920 mL) with 266 μL (2×133 μL) of substrate solution). At t=0, add 30 μL of working substrate solution with multi-channel pipette labeled “Briggs 303” and start the reading ([S]final: 5 μM). […] The velocities are used to analyze and calculate the IC50s.
Compound,melting point [°C],% Inhibition ([1]; compound concentration 2000 nM) [%],% Inhibition ([1]; compound concentration 200 nM) [%]
"O=C(Nc1ccc(OC(F)(F)F)cc1)NC1CCN(C(=O)c2ccc(Cl)cn2)CC1 [Compound 18, 1-(1-(5-chloropicolinoyl)piperidin-4-yl)-3-(4-(trifluoromethoxy)phenyl)urea]",213 to 215,97,–
"Cc1ncccc1C(=O)N1CCC(NC(=O)Nc2ccc(OC(F)(F)F)cc2)CC1 [Compound 3, 1-(1-(2-methylnicotinoyl)piperidin-4-yl)-3-(4-(trifluoromethoxy)phenyl)urea]",107 to 109,–,95
"CN1CCOc2cc(C(=O)N3CCC(NC(=O)Nc4ccc(OC(F)(F)F)cc4)CC3)cnc21 [Compound 17, 1-(1-(4-methyl-3,4-dihydro-2H-pyrido[3,2-b][1,4]oxazine-7-carbonyl)piperidin-4-yl)-3-(4-(trifluoromethoxy)phenyl)urea]",212 to 214,100,–
"O=C(Nc1ccc(OC(F)(F)F)cc1)NC1CCN(C(=O)c2ccncc2)CC1 [Compound 8, 1-(1-isonicotinoylpiperidin-4-yl)-3-(4-(trifluoromethoxy)phenyl)urea]",–,99,–
"O=C(Nc1ccc(OC(F)(F)F)cc1)NC1CCN(S(=O)(=O)c2cccnc2)CC1 [Compound 6, 1-(1-(pyridin-3-ylsulfonyl)piperidin-4-yl)-3-(4-(trifluoromethoxy)phenyl)urea]",217 to 219,–,96
"O=C(Nc1ccc(OC(F)(F)F)cc1)NC1CCN(C(=O)c2cnccc2C(F)(F)F)CC1 [Compound 13, 1-(4-(trifluoromethoxy)phenyl)-3-(1-(4-(trifluoromethyl)nicotinoyl)piperidin-4-yl)urea]",89 to 91,99,–
"O=C(Nc1ccc(OC(F)(F)F)cc1)NC1CCN(C(=O)c2ccc(-c3ccccc3)nc2)CC1 [Compound 14, 1-(1-(6-phenylnicotinoyl)piperidin-4-yl)-3-(4-(trifluoromethoxy)phenyl)urea]",230 to 232,100,–
"O=C(Nc1ccc(OC(F)(F)F)cc1)NC1CCN(C(=O)c2ccc(C(F)(F)F)nc2)CC1 [Compound 2, 1-(4-(trifluoromethoxy)phenyl)-3-(1-(6-(trifluoromethyl)nicotinoyl)piperidin-4-yl)urea]",206 to 208,–,97
"O=C(Nc1cccc(OC(F)(F)F)c1)NC1CCN(C(=O)c2cccnc2)CC1 [Compound 10, 1-(1-nicotinoylpiperidin-4-yl)-3-(3-(trifluoromethoxy)phenyl)urea]",–,99,–
"Cc1ccc(C(=O)N2CCC(NC(=O)Nc3ccc(OC(F)(F)F)cc3)CC2)cn1 [Compound 4, 1-(1-(6-methylnicotinoyl)piperidin-4-yl)-3-(4-(trifluoromethoxy)phenyl)urea]",206 to 208,–,97
"COc1ncccc1C(=O)N1CCC(NC(=O)Nc2ccc(OC(F)(F)F)cc2)CC1 [Compound 5, 1-(1-(2-methoxynicotinoyl)piperidin-4-yl)-3-(4-(trifluoromethoxy)phenyl)urea]",92 to 94,–,99
"O=C(Nc1ccc(OC(F)(F)F)cc1)NC1CCN(C(=O)c2cccnc2)CC1 [Compound 12, 1-(1-nicotinoylpiperidin-4-yl)-3-(4-(trifluoromethoxy)phenyl)urea]",–,100,–
"O=C(Nc1ccc(OC(F)(F)F)cc1)NC1CCN(C(=O)c2cncc(C(=O)O)c2)CC1 [Compound 1, 5-(4-(3-(4-(trifluoromethoxy)phenyl)ureido)piperidine-1-carbonyl)nicotinic acid]",211 to 213,–,94
"O=C(Nc1ccc(OC(F)(F)F)cc1)NC1CCN(C(=O)c2cncc(F)c2)CC1 [Compound 7, 1-(1-(5-fluoronicotinoyl)piperidin-4-yl)-3-(4-(trifluoromethoxy)phenyl)urea]",156 to 157,98,–
"O=C(Nc1ccc(OC(F)(F)F)cc1)NC1CCN(C(=O)c2ccc(Oc3ccccc3)nc2)CC1 [Compound 16, 1-(1-(6-phenoxynicotinoyl)piperidin-4-yl)-3-(4-(trifluoromethoxy)phenyl)urea]",182 to 185,100,–
"COc1ccc(C(=O)N2CCC(NC(=O)Nc3ccc(OC(F)(F)F)cc3)CC2)cn1 [Compound 9, 1-(1-(6-methoxynicotinoyl)piperidin-4-yl)-3-(4-(trifluoromethoxy)phenyl)urea]",200 to 202,99,–
"O=C(Nc1ccc(OC(F)(F)F)cc1)NC1CCN(C(=O)c2ccc(N3CCOCC3)nc2)CC1 [Compound 15, 1-(1-(6-morpholinonicotinoyl)pipendin-4-yl)-3-(4-(trifluoromethoxy)phenyl)urea]",265 to 268,100,–
"O=C(Nc1ccc(OC(F)(F)F)cc1)NC1CCN(C(=O)Cc2ccccn2)CC1 [Compound 11, 1-(1-(2-(pyridin-2-yl)acetyl)piperidin-4-yl)-3-(4-(trifluoromethoxy)phenyl)urea]",–,100,–
